Measurements: patent US10392338B2, “Spirofuranone compounds, derivatives thereof and processes for their preparation” (Yissum Research Development Company of The Hebrew …, priority 2015, dated 2019)
Entries after “also recorded” stand apart in the source; their conditions may differ.

Key:
[1] = molecular target: rTRPV1(Y511G) (Rattus norvegicus, UniProt O35433, Y511G); details: 300 μM; VBS domain mutated
Experimental: Averaged (n=30 cells) ratiometric calcium responses of HEK293T cells expressing rat TRPV1 (rTRPV1), as a function of time. Application of different SAVA (as indicated; 300 μM; yellow bar) was followed by capsaicin (CAP; 5 μM; red bar). […] Same as B, but recorded from HEK293T cells expressing rTRPV1(Y511G) in which VBS domain is mutated. […] D. Superimposed capsaicin-(1 μM; grey line) and SAVA-(compound 6 in B; 300 μM; black line)-induced currents (Vholding=−40 mV) recorded in whole cell configuration from HEK293T cells expressing the rTRPV1. Recording were done on cells with similar TRPV1 expressing levels (determined by the initial response to pH 5.5). […] E. Current-clamp recording (I=0) in the whole cell configuration from small-diameter (C-fiber) rat TG neurons (P2 old pup).
To verify, that the evoked response of our TRPV1-positive compounds is through the Vanilloid-binding site (VBS), we analyzed their activation profile on TRPV1(Y511 G) construct.
Next, the new scaffolds-evoked TRPV1 currents were analyzed using the voltage-clamp whole-cell configuration of the patch-clamp technique on HEK293T cells stably transfected with the rTRPV1 gene.

[2] = test system: small-diameter (C-fiber) rat TG neurons; assay: Current-clamp whole-cell recording of membrane potential in dissociated TG sensory neurons; format: cell-based; details: capsaicin 0.2 μM; current clamp I=0; P2 rat TG neurons
From the text: In dissociated sensory neurons from the trigeminal ganglion (TG) of P2 rat, the inventors have recorded the membrane potential following the application of the different molecules, using current-clamp mode in the whole-cell configuration. […] In contrast, the compound of the invention have evoked slow (in comparison to capsaicin), ˜20 mV depolarization, with no action potential firing (FIG. 16E, upper trace).

Chain of rTRPV1(Y511G) (O35433 whole entry Y511G, the tested form may be a part): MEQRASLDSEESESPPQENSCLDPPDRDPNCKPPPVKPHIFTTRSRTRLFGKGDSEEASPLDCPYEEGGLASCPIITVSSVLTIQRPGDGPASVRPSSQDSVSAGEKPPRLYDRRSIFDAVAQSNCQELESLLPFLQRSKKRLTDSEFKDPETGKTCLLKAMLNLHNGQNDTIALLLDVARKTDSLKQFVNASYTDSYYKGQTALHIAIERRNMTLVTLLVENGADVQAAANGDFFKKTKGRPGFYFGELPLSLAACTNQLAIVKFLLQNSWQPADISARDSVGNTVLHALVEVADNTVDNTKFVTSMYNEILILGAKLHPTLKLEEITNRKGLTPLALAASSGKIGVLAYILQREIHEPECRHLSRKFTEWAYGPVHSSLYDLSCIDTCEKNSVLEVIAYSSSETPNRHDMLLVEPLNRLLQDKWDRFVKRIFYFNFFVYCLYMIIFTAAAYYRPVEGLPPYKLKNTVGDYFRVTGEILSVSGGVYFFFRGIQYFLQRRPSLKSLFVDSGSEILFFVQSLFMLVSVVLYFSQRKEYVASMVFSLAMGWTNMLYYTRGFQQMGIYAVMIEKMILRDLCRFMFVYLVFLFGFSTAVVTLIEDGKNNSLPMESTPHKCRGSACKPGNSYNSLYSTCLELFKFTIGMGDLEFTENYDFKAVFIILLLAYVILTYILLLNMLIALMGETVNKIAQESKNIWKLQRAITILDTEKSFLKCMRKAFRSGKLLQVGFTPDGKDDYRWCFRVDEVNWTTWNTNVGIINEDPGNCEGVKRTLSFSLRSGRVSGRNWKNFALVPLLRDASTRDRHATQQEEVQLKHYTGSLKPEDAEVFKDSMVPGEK

Row | Structure (SMILES) | calcium response of cells expressing mutant rTRPV1(Y511G) [1] | depolarization and action potential firing [2]
1 | NCCOB(c1ccccc1)c1ccccc1 [2-APB, 2-aminoethoxydiphenyl borate] | responded | –
2 | COc1cc(CNC(=O)CCCC/C=C/C(C)C)ccc1O [capsaicin, Capsaicin] | – | pronounced depolarization and burst of action potentials, followed by depolarization block; also recorded: robust depolarization with burst of action potentials followed by depolarization block
